PubChem BioAssay (NCI)
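Dose response: 5 concentrations. Exposure: 48 h. Format: 96-well plates. Endpoint: linear interpolation; highest concentration if not reached. TGI marks complete inhibition of growth.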

Legend:
Assay in all cases: inhibition of tumour cell growth, NCI panel, 48 h
LOX IMVI melanoma = system: LOX IMVI melanoma
SF-539 CNS = system: SF-539 CNS
SNB-19 CNS = system: SNB-19 CNS
UACC-257 melanoma = system: UACC-257 melanoma
HT29 colon = system: HT29 colon
CCRF-CEM leukemia = system: CCRF-CEM leukemia
HL-60(TB) leukemia = system: HL-60(TB) leukemia
MDA-MB-435 = system: MDA-MB-435
SR leukemia = system: SR leukemia
RPMI-8226 leukemia = system: RPMI-8226 leukemia
786-0 renal = system: 786-0 renal
K-562 leukemia = system: K-562 leukemia
MOLT-4 leukemia = system: MOLT-4 leukemia
HCT-15 colon = system: HCT-15 colon
DU-145 prostate = system: DU-145 prostate
MCF7 breast = system: MCF7 breast
HS 578T breast = system: HS 578T breast
SK-MEL-5 melanoma = system: SK-MEL-5 melanoma
OVCAR-5 ovarian = system: OVCAR-5 ovarian
HOP-92 NSCLC = system: HOP-92 NSCLC
IGROV1 ovarian = system: IGROV1 ovarian
HCC-2998 colon = system: HCC-2998 colon
M14 melanoma = system: M14 melanoma
SK-OV-3 ovarian = system: SK-OV-3 ovarian
U251 CNS = system: U251 CNS
A549 NSCLC = system: A549 NSCLC
NCI-H23 lung = system: NCI-H23 lung
EKVX NSCLC = system: EKVX NSCLC
MDA-MB-231 breast = system: MDA-MB-231 breast
SN12C renal = system: SN12C renal
BT-549 breast = system: BT-549 breast
RXF 393 renal = system: RXF 393 renal
SW-620 colon = system: SW-620 colon
SK-MEL-2 melanoma = system: SK-MEL-2 melanoma
MDA-N = system: MDA-N
UO-31 renal = system: UO-31 renal
COLO 205 colon = system: COLO 205 colon
UACC-62 melanoma = system: UACC-62 melanoma
MALME-3M melanoma = system: MALME-3M melanoma
HCT-116 colon = system: HCT-116 colon
HOP-62 NSCLC = system: HOP-62 NSCLC
CAKI-1 renal = system: CAKI-1 renal
TK-10 renal = system: TK-10 renal
OVCAR-3 ovarian = system: OVCAR-3 ovarian
OVCAR-8 ovarian = system: OVCAR-8 ovarian
NCI-H460 lung = system: NCI-H460 lung
A498 renal = system: A498 renal
NCI-H226 lung = system: NCI-H226 lung
PC-3 prostate = system: PC-3 prostate
NCI/ADR-RES ovarian = system: NCI/ADR-RES ovarian
ACHN renal = system: ACHN renal
SF-295 CNS = system: SF-295 CNS

`Cc1cccc(N2C(=O)C3c4[nH]c5ccccc5c4C4CCC(C(C)(C)C)CC4C3C2=O)c1C` (configuration not stated) gave a TGI (LOX IMVI melanoma) of over 100 µM, a TGI (SF-539 CNS) of over 100 µM and a TGI (SNB-19 CNS) of over 100 µM. For the same compound, the TGI (UACC-257 melanoma) was over 100 µM, the TGI (HT29 colon) was over 100 µM and the TGI (CCRF-CEM leukemia) was over 100 µM. It also gave a TGI (HL-60(TB) leukemia) of 60.4 µM, a TGI (MDA-MB-435) of over 100 µM and a TGI (SR leukemia) of over 100 µM. The TGI (RPMI-8226 leukemia) was over 100 µM, the TGI (786-0 renal) was over 100 µM and the TGI (K-562 leukemia) was over 100 µM. For the same compound, the TGI (MOLT-4 leukemia) was over 100 µM, the TGI (HCT-15 colon) was over 100 µM and the TGI (DU-145 prostate) was over 100 µM. It also gave a TGI (MCF7 breast) of over 100 µM, a TGI (HS 578T breast) of over 100 µM and a TGI (SK-MEL-5 melanoma) of over 100 µM. The TGI (OVCAR-5 ovarian) was over 100 µM, the TGI (HOP-92 NSCLC) was over 100 µM and the TGI (IGROV1 ovarian) was over 100 µM. It also gave a TGI (HCC-2998 colon) of over 100 µM, a TGI (M14 melanoma) of over 100 µM and a TGI (SK-OV-3 ovarian) of over 100 µM. For the same compound, the TGI (U251 CNS) was 83.4 µM, the TGI (A549 NSCLC) was over 100 µM and the TGI (NCI-H23 lung) was over 100 µM. For the same compound, the TGI (EKVX NSCLC) was over 100 µM, the TGI (MDA-MB-231 breast) was 42.3 µM and the TGI (SN12C renal) was over 100 µM. For the same compound, the TGI (BT-549 breast) was over 100 µM, the TGI (RXF 393 renal) was over 100 µM and the TGI (SW-620 colon) was over 100 µM. It also gave a TGI (SK-MEL-2 melanoma) of over 100 µM, a TGI (MDA-N) of over 100 µM and a TGI (UO-31 renal) of over 100 µM. The TGI (COLO 205 colon) was over 100 µM, the TGI (UACC-62 melanoma) was over 100 µM and the TGI (MALME-3M melanoma) was over 100 µM. For the same compound, the TGI (HCT-116 colon) was over 100 µM, the TGI (HOP-62 NSCLC) was over 100 µM and the TGI (CAKI-1 renal) was over 100 µM. For the same compound, the TGI (TK-10 renal) was over 100 µM, the TGI (OVCAR-3 ovarian) was over 100 µM and the TGI (OVCAR-8 ovarian) was over 100 µM. The TGI (NCI-H460 lung) was over 100 µM, the TGI (A498 renal) was over 100 µM and the TGI (NCI-H226 lung) was over 100 µM. For the same compound, the TGI (PC-3 prostate) was over 100 µM, the TGI (NCI/ADR-RES ovarian) was over 100 µM and the TGI (ACHN renal) was over 100 µM. For the same compound, the TGI (SF-295 CNS) was over 100 µM.
